This is an account of results in ChEMBL document CHEMBL5042478, “Design, Synthesis, and Evaluation of VHL-Based EZH2 Degraders to Enhance Therapeutic Activity against Lymphoma” (J Med Chem, 2021).

The source made the active and inactive calls. The calls are words filed in the database; no cut-off is given here.

Test [1] deals with T1, von Hippel-Lindau disease tumor suppressor/Histone-lysine N-methyltransferase EZH2 (Homo sapiens) (UniProt Q15910+P40337). Description: Protac activity at VHL/EZH2 in human 22Rv1 cells assessed as reduction in H3K27me3 level at 1 uM incubated for 48 hrs by Western blot analysis. Format: cell-based. On the technique in general: Immunoblotting shows a protein as a band on a membrane.
T1 sequence (P40337 whole entry, looked up): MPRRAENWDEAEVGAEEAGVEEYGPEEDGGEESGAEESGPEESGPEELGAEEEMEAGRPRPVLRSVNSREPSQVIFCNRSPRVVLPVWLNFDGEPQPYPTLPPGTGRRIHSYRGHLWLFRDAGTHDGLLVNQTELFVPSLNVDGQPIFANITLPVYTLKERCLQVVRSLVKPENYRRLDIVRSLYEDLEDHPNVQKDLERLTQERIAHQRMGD
T1 sequence (Q15910 whole entry, looked up): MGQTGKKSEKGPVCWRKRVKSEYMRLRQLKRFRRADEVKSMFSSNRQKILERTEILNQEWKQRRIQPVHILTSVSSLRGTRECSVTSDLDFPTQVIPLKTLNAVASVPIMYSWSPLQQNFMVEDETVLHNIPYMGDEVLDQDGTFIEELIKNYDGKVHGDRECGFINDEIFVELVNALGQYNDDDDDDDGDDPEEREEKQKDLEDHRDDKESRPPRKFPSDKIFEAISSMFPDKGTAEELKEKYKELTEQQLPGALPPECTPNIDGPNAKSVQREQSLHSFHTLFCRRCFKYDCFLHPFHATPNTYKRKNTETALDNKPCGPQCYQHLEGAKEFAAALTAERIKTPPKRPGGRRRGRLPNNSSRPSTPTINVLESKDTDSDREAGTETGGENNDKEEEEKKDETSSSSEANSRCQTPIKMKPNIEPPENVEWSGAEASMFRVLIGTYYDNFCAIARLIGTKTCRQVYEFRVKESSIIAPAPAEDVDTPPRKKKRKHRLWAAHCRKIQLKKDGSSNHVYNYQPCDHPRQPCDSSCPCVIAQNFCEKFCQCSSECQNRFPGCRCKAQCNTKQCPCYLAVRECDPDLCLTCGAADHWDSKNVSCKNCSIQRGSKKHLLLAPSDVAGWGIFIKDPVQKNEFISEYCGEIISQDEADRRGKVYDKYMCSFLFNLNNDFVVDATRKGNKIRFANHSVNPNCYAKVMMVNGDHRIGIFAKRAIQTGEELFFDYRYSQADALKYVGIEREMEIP

The target of test [2] is T1, von Hippel-Lindau disease tumor suppressor/Histone-lysine N-methyltransferase EZH2 (Homo sapiens). In words: Protac activity at VHL/EZH2 in human 22Rv1 cells assessed as reduction in EZH2 level at 1 uM incubated for 48 hrs by Western blot analysis. Format: cell-based.
Test [3] has the same target. In words: Protac activity at VHL/EZH2 in human 22Rv1 cells assessed as reduction in EZH2 level at 2 uM preincubated with VH032 for 2 hrs followed by compound addition and measured after 24 hrs by Western blot analysis. It is filed as cell-based. Particulars: time 26.0 hrs.
The target is the same in test [4]. In words: Protac activity at VHL/EZH2 in human 22Rv1 cells assessed as EZH2 protein abundance after 24 hrs by Western blot analysis. It is filed as cell-based. Particulars: dose 1-6 µM.
In test [5] the target is von Hippel-Lindau disease tumor suppressor/Histone-lysine N-methyltransferase EZH1 (Homo sapiens) (UniProt Q92800+P40337). Description: Protac activity at VHL/EZH1 in human 22Rv1 cells assessed as EZH1 protein abundance at 1 to 6 uM after 24 hrs by Western blot analysis. It is filed as cell-based. Particulars: dose 1-6 µM.
Sequence of von Hippel-Lindau disease tumor suppressor/Histone-lysine N-methyltransferase EZH1 (Homo sapiens) (P40337 whole entry, looked up): as the sequence (P40337 whole entry, looked up) above
Sequence of von Hippel-Lindau disease tumor suppressor/Histone-lysine N-methyltransferase EZH1 (Homo sapiens) (Q92800 whole entry, looked up): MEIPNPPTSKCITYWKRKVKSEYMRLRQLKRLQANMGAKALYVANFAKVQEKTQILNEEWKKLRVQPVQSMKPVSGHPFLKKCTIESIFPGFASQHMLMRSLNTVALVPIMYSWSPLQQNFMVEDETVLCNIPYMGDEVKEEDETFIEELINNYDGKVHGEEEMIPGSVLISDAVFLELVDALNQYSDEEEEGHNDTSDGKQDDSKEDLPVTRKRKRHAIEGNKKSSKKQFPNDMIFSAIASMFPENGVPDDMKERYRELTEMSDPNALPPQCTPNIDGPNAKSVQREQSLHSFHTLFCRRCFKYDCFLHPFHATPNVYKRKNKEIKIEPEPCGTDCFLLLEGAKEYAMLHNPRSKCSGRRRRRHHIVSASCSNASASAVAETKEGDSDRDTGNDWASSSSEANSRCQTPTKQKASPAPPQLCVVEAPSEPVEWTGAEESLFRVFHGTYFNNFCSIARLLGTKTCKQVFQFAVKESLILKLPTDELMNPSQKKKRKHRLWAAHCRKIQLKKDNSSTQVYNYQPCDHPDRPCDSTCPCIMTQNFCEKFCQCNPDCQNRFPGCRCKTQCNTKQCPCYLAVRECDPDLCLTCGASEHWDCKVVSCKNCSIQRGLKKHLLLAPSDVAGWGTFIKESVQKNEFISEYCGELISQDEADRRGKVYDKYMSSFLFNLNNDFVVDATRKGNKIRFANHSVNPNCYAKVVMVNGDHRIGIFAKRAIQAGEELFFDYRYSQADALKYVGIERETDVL
In test [6] the target is T1, von Hippel-Lindau disease tumor suppressor/Histone-lysine N-methyltransferase EZH2 (Homo sapiens). In words: Protac activity at VHL/EZH2 in human 22Rv1 cells assessed as maximum degradation efficacy at 2 uM by Western blot analysis relative to control. Format: cell-based.
The target of test [7] is T2, von Hippel-Lindau disease tumor suppressor/Polycomb protein EED (Homo sapiens) (UniProt O75530+P40337). In words: Protac activity at VHL/EED in human 22Rv1 cells assessed as reduction in EED level at 2 uM incubated for 24 hrs by Western blot analysis. Format: cell-based.
T2 sequence (O75530 2-441 limits assumed): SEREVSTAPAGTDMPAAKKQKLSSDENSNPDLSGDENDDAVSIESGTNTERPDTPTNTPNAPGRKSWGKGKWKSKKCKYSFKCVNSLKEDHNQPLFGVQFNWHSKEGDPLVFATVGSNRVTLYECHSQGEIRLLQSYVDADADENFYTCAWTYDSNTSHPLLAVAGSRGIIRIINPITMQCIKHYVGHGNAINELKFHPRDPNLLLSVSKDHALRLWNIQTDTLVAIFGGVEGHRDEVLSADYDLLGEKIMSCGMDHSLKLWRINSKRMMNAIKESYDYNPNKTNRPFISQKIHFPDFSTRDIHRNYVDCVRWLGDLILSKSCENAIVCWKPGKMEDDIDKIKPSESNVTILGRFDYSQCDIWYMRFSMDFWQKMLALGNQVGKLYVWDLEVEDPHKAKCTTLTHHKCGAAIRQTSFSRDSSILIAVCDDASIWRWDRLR
T2 sequence (P40337 whole entry partner): as the sequence (P40337 whole entry, looked up) above
In test [8] the target is T3, von Hippel-Lindau disease tumor suppressor/Polycomb protein SUZ12 (Homo sapiens) (UniProt Q15022+P40337). Description: Protac activity at VHL/SUZ12 in human 22Rv1 cells assessed as reduction in SUZ12 level at 2 uM incubated for 24 hrs by Western blot analysis. Format: cell-based.
T3 sequence (P40337 whole entry, looked up): as above
T3 sequence (Q15022 whole entry, looked up): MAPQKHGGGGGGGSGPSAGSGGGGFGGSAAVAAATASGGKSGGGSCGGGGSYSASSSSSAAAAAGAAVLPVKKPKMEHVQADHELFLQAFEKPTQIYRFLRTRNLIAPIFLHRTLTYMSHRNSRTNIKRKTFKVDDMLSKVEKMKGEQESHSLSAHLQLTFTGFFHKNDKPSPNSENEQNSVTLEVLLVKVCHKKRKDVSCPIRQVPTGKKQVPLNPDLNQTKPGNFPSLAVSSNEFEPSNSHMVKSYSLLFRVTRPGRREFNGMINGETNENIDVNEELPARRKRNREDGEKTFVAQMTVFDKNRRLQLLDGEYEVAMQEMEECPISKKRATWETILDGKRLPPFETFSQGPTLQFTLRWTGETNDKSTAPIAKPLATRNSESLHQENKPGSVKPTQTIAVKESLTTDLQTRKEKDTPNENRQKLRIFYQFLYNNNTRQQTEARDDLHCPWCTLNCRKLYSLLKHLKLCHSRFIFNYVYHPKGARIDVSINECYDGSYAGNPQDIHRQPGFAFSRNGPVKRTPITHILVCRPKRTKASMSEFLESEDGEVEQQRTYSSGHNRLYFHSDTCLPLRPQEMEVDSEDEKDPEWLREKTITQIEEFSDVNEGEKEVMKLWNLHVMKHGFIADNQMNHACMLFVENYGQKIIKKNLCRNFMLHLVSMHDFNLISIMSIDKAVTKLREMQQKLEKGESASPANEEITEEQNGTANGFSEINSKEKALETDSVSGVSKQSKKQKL
Test [9] deals with T1, von Hippel-Lindau disease tumor suppressor/Histone-lysine N-methyltransferase EZH2 (Homo sapiens). Description: Protac activity at VHL/EZH2 in VHL knockdown human 22Rv1 cells assessed as reduction in EZH2 level at 2 uM for 24 hrs by Western blot analysis. Format: cell-based.
For test [10] the target is unchanged. In words: Protac activity at VHL/EZH2 in human 22Rv1 cells assessed as increase in EZH2 ubiquitination at 2 uM for 12 hrs by immunoprecipitation based Western blot analysis. It is filed as cell-based.
Another test concerns SU-DHL-2. Description: Antiproliferative activity against human SUDHL2 cells assessed as reduction in cell viability at 0.01 to 10 uM measured after 5 days by MTS assay. Particulars: dose 0.01-10 µM, time 5.0 day. Format: functional, cell-based.
The subject of the next test is SUD4. Description: Antiproliferative activity against human SU-DHL-4 cells assessed as reduction in cell viability at 0.01 to 10 uM measured after 5 days by MTS assay. It is filed as functional, cell-based. The conditions noted are these: dose 0.01-10 µM, time 5.0 day. For orientation: Formazan colour is commonly taken as a measure of viable cells.
In test [11] the test system is SU-DHL-6. In words: Antiproliferative activity against human SU-DHL-6 cells assessed as reduction in cell viability at 0.01 to 10 uM measured after 5 days by MTS assay. Format: functional, cell-based. Particulars: dose 0.01-10 µM, time 5.0 day.
Test [12] addresses Histone-lysine N-methyltransferase EZH2 (Homo sapiens) (UniProt Q15910). In words: Induction of EZH2 degradation in human SUDHL2 cells at 0.1 to 5 uM after 24 hrs by Western blot analysis. Format: cell-based. The conditions noted are these: dose 0.1-5 µM.
Test [13] deals with SU-DHL-6. In words: Induction of cell cycle arrest in human SU-DHL-6 cells assessed as accumulation of cells at sub G1 phase after 24 hrs by flow cytometry. Format: functional, cell-based. Particulars: dose 1-5 µM.
The test system of test [14] is SU-DHL-6. Description: Induction of apoptosis in human SU-DHL-6 cells assessed as increase in cleaved PARP level at 1 to 5 uM incubated for 48 hrs by Western blot analysis. Particulars: dose 1-5 µM. Format: functional, cell-based.
The subject of test [15] is SU-DHL-6. Description: Induction of apoptosis in human SU-DHL-6 cells assessed as increase in cleaved capase-3 level at 1 to 5 uM incubated for 48 hrs by Western blot analysis. Format: functional, cell-based. Particulars: dose 1-5 µM.
Test [16] relates to SU-DHL-6. In words: Induction of apoptosis in human SU-DHL-6 cells at 1 to 5 uM incubated for 48 hrs by Annexin V/propidium iodide staining based flow cytometry. Particulars: dose 1-5 µM. Format: functional, cell-based. On the technique in general: Flow cytometry measures light scatter and fluorescence of single cells or particles in a stream.
For test [17], the target named is T1, von Hippel-Lindau disease tumor suppressor/Histone-lysine N-methyltransferase EZH2 (Homo sapiens). In words: Protac activity at VHL/EZH2 in human 22Rv1 cells assessed as reduction in H3K27me3 level after 24 hrs by Western blot analysis. It is filed as cell-based. The conditions noted are these: dose 1-6 µM.
Test [18] addresses T3, von Hippel-Lindau disease tumor suppressor/Polycomb protein SUZ12 (Homo sapiens). Description: Protac activity at VHL/SUZ12 in human SUDHL2 cells assessed as reduction in SUZ12 level at 2 uM incubated for 24 hrs by Western blot analysis. It is filed as cell-based.
The target of test [19] is T2, von Hippel-Lindau disease tumor suppressor/Polycomb protein EED (Homo sapiens). In words: Protac activity at VHL/EED in human SUDHL2 cells assessed as reduction in EED level at 2 uM incubated for 24 hrs by Western blot analysis. It is filed as cell-based.
For test [20], the target named is T1, von Hippel-Lindau disease tumor suppressor/Histone-lysine N-methyltransferase EZH2 (Homo sapiens). In words: Protac activity at VHL/EZH2 in human 22Rv1 cells assessed as EZH2 degradation at 2 uM after 2 to 4 hrs by Western blot analysis. Format: cell-based. Particulars: time 2-4 hrs.
Test [21] relates to SU-DHL-6. In words: Induction of cell cycle arrest in human SU-DHL-6 cells after 24 hrs by flow cytometry. It is filed as functional, cell-based. Particulars: dose 1-5 µM.
Test [22] concerns the target T4, Protein cereblon/Histone-lysine N-methyltransferase EZH2 (Homo sapiens) (UniProt Q15910+Q96SW2). Description: Protac activity at CRBN E3 ligase/EZH2 in human 22Rv1 cells assessed as degradation of EZH2 at 0.3 uM incubated for 48 hrs by Western blot analysis. It is filed as cell-based.
Test [23] addresses T4, Protein cereblon/Histone-lysine N-methyltransferase EZH2 (Homo sapiens). Description: Protac activity at CRBN E3 ligase/EZH2 in human 22Rv1 cells assessed as degradation of EZH2 at 1 uM incubated for 48 hrs by Western blot analysis. It is filed as cell-based.
Test [24] shares this target. In words: Protac activity at CRBN E3 ligase/EZH2 in human 22Rv1 cells assessed as degradation of EZH2 at 3 uM incubated for 48 hrs by Western blot analysis. Format: cell-based.
The target is the same in test [25]. In words: Protac activity at CRBN E3 ligase/EZH2 in human 22Rv1 cells assessed as inhibition of H3K27me3 at 0.3 uM incubated for 48 hrs by Western blot analysis. It is filed as cell-based.
The target is the same in test [26]. In words: Protac activity at CRBN E3 ligase/EZH2 in human 22Rv1 cells assessed as inhibition of H3K27me3 at 1 uM incubated for 48 hrs by Western blot analysis. It is filed as cell-based.
Test [27] has the same target. Description: Protac activity at CRBN E3 ligase/EZH2 in human 22Rv1 cells assessed as inhibition of H3K27me3 at 3 uM incubated for 48 hrs by Western blot analysis. Format: cell-based.

T4 sequence (Q15910 whole entry, looked up): as the sequence (Q15910 whole entry, looked up) above
T4 sequence (Q96SW2 whole entry, looked up): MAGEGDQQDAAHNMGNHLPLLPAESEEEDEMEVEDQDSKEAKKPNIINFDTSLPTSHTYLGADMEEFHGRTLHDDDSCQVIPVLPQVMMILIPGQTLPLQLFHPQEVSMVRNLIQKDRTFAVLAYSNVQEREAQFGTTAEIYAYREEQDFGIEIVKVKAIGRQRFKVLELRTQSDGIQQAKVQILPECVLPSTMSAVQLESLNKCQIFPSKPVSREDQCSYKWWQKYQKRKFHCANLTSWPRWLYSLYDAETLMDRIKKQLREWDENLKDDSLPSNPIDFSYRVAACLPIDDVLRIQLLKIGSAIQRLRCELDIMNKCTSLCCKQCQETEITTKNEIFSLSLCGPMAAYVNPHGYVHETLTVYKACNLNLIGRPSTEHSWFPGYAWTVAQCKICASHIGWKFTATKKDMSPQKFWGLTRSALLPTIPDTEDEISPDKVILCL
Sequence of Histone-lysine N-methyltransferase EZH2 (Homo sapiens) (Q15910 whole entry, looked up): as the sequence (Q15910 whole entry, looked up) above

Regarding `CCN(c1cc(-c2ccc(C(=O)NCCOCCOCCOCC(=O)N[C@H](C(=O)N3C[C@H](O)C[C@H]3C(=O)NCc3ccc(-c4scnc4C)cc3)C(C)(C)C)cc2)cc(C(=O)NCc2c(C)cc(C)[nH]c2=O)c1C)C1CCOCC1`, the result in test [1] and in test [2] was inactive.

As for `CCN(c1cc(-c2ccc(C(=O)NCCOCCOCC(=O)N[C@H](C(=O)N3C[C@H](O)C[C@H]3C(=O)NCc3ccc(-c4scnc4C)cc3)C(C)(C)C)cc2)cc(C(=O)NCc2c(C)cc(C)[nH]c2=O)c1C)C1CCOCC1`, in test [1], the result was Active.

What is called Emax is the greatest response seen or fitted, relative to the assay's reference. Regarding `CCN(c1cc(-c2ccc(OCCOCCOCC(=O)N[C@H](C(=O)N3C[C@H](O)C[C@H]3C(=O)NCc3ccc(-c4scnc4C)cc3)C(C)(C)C)cc2)cc(C(=O)NCc2c(C)cc(C)[nH]c2=O)c1C)C1CCOCC1`, the outcome in [3], in test [5] and in test [9] was inactive. Moreover, the result (in [1]; in test [7]; in test [8]; in [10]; in the test on SU-DHL-2; with SUD4) was Active. In addition, the outcome (in the test with SU-DHL-6 [11]; in [12]; in the test with SU-DHL-6 [14]; with SU-DHL-6 [15]; in test [18]; in test [19]) was Active. Moreover, the outcome in test [20] and in test [2] was Active. In addition, the Activity entry (in test [4]; in the test with SU-DHL-6 [13]; in the test on SU-DHL-6 [16]; in test [17]; with SU-DHL-6 [21]) was “Dose-Dependent Effect” throughout. For the same compound, in [6], the Emax came out at 80%.

With `CCN(c1cc(-c2ccc(C(=O)NCCOCCOCCOCCOCC(=O)N[C@H](C(=O)N3C[C@H](O)C[C@H]3C(=O)NCc3ccc(-c4scnc4C)cc3)C(C)(C)C)cc2)cc(C(=O)NCc2c(C)cc(C)[nH]c2=O)c1C)C1CCOCC1`, the result in test [1] and in test [2] was inactive.

As for `CCN(c1cc(-c2ccc(C(=O)NCCCCNc3cccc4c3C(=O)N(C3CCC(=O)NC3=O)C4=O)cc2)cc(C(=O)NCc2c(C)cc(C)[nH]c2=O)c1C)C1CCOCC1` (centres undefined), the result in [22], in test [23] and in [24] was inactive. Also, the result in test [25], in test [26] and in test [27] was Active.

Take `CCN(c1cc(-c2ccc(C(=O)NCCCCCCCCNC(=O)COc3cccc4c3C(=O)N(C3CCC(=O)NC3=O)C4=O)cc2)cc(C(=O)NCc2c(C)cc(C)[nH]c2=O)c1C)C1CCOCC1` (centres undefined): the result in test [22], in [23], in test [24], in [25] and in test [26] was inactive. Further, the outcome in test [27] was Active.

As for `CCN(c1cc(-c2ccc(C(=O)NCCOCCOCCOCCOc3cccc4c3C(=O)N(C3CCC(=O)NC3=O)C4=O)cc2)cc(C(=O)NCc2c(C)cc(C)[nH]c2=O)c1C)C1CCOCC1` (centres undefined), the result in test [22], in test [23], in test [24] and in [25] was inactive. The result in test [26] and in test [27] was Active.

For the compound `CCN(c1cc(-c2ccc(C(=O)NCCOCCNc3cccc4c3C(=O)N(C3CCC(=O)NC3=O)C4=O)cc2)cc(C(=O)NCc2c(C)cc(C)[nH]c2=O)c1C)C1CCOCC1` (centres undefined), the outcome in [22], in test [23] and in test [24] was inactive. Moreover, the result in [25], in test [26] and in test [27] was Active.

For `CCN(c1cc(-c2ccc(C(=O)NCCCCCCNC(=O)COc3cccc4c3C(=O)N(C3CCC(=O)NC3=O)C4=O)cc2)cc(C(=O)NCc2c(C)cc(C)[nH]c2=O)c1C)C1CCOCC1` (centres undefined), the outcome in test [22], in test [23] and in test [24] was inactive. Also, the outcome in test [25], in [26] and in test [27] was Active.

On to `CCN(c1cc(-c2ccc(C(=O)NCCOCCOCCOc3cccc4c3C(=O)N(C3CCC(=O)NC3=O)C4=O)cc2)cc(C(=O)NCc2c(C)cc(C)[nH]c2=O)c1C)C1CCOCC1` (centres undefined), for which the outcome in [22], in test [23], in [24], in test [25], in [26] and in test [27] was inactive.
